According to PubChem BioAssay (NCI):
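1) Cells in 96-well plates. 2) Compound, 48 h, 5 concentrations. 3) Linear interpolation between surrounding doses. 4) Unreached endpoint = highest concentration. TGI is the concentration that stops growth completely.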

Tests used:
Assay in all cases: NCI anticancer screen, dose series, 48 h
MDA-MB-231 breast = system: MDA-MB-231 breast
U251 CNS = system: U251 CNS
T-47D breast = system: T-47D breast
SNB-75 CNS = system: SNB-75 CNS
M14 melanoma = system: M14 melanoma
HOP-62 NSCLC = system: HOP-62 NSCLC
KM12 colon = system: KM12 colon
HS 578T breast = system: HS 578T breast
SN12C renal = system: SN12C renal
SK-MEL-2 melanoma = system: SK-MEL-2 melanoma
HL-60(TB) leukemia = system: HL-60(TB) leukemia
MOLT-4 leukemia = system: MOLT-4 leukemia
OVCAR-4 ovarian = system: OVCAR-4 ovarian
SW-620 colon = system: SW-620 colon
NCI-H460 lung = system: NCI-H460 lung
EKVX NSCLC = system: EKVX NSCLC
MDA-MB-435 = system: MDA-MB-435
786-0 renal = system: 786-0 renal
NCI/ADR-RES ovarian = system: NCI/ADR-RES ovarian
MALME-3M melanoma = system: MALME-3M melanoma
OVCAR-8 ovarian = system: OVCAR-8 ovarian
PC-3 prostate = system: PC-3 prostate
SK-MEL-5 melanoma = system: SK-MEL-5 melanoma
NCI-H23 lung = system: NCI-H23 lung
OVCAR-3 ovarian = system: OVCAR-3 ovarian
IGROV1 ovarian = system: IGROV1 ovarian
SF-539 CNS = system: SF-539 CNS
HCC-2998 colon = system: HCC-2998 colon
SF-268 CNS = system: SF-268 CNS
HCT-116 colon = system: HCT-116 colon
CCRF-CEM leukemia = system: CCRF-CEM leukemia
RPMI-8226 leukemia = system: RPMI-8226 leukemia
ACHN renal = system: ACHN renal
SNB-19 CNS = system: SNB-19 CNS
SK-OV-3 ovarian = system: SK-OV-3 ovarian
UACC-257 melanoma = system: UACC-257 melanoma
TK-10 renal = system: TK-10 renal
SK-MEL-28 melanoma = system: SK-MEL-28 melanoma
MDA-N = system: MDA-N
SR leukemia = system: SR leukemia
UO-31 renal = system: UO-31 renal
HT29 colon = system: HT29 colon
A549 NSCLC = system: A549 NSCLC
SF-295 CNS = system: SF-295 CNS
HCT-15 colon = system: HCT-15 colon
BT-549 breast = system: BT-549 breast
COLO 205 colon = system: COLO 205 colon
DU-145 prostate = system: DU-145 prostate
OVCAR-5 ovarian = system: OVCAR-5 ovarian
LOX IMVI melanoma = system: LOX IMVI melanoma
NCI-H522 lung = system: NCI-H522 lung
CAKI-1 renal = system: CAKI-1 renal
UACC-62 melanoma = system: UACC-62 melanoma
RXF 393 renal = system: RXF 393 renal
NCI-H226 lung = system: NCI-H226 lung
K-562 leukemia = system: K-562 leukemia
MCF7 breast = system: MCF7 breast
A498 renal = system: A498 renal
HOP-92 NSCLC = system: HOP-92 NSCLC

SMILES: CN(C)CCOC1(CC2CCCCC2)CCC(C(C)(C)C)CC1 (stereo not drawn)
- TGI (MDA-MB-231 breast): 13.5 µM
- TGI (U251 CNS): 13.2 µM
- TGI (T-47D breast): 13.6 µM
- TGI (SNB-75 CNS): 19.1 µM
- TGI (M14 melanoma): 4.61 µM
- TGI (HOP-62 NSCLC): 11.2 µM
- TGI (KM12 colon): 14.4 µM
- TGI (HS 578T breast): 23.4 µM
- TGI (SN12C renal): 20.6 µM
- TGI (SK-MEL-2 melanoma): 13.7 µM
- TGI (HL-60(TB) leukemia): 7.35 µM
- TGI (MOLT-4 leukemia): 7.67 µM
- TGI (OVCAR-4 ovarian): 19.8 µM
- TGI (SW-620 colon): 12.7 µM
- TGI (NCI-H460 lung): 9.65 µM
- TGI (EKVX NSCLC): 22 µM
- TGI (MDA-MB-435): 13.8 µM
- TGI (786-0 renal): 5.91 µM
- TGI (NCI/ADR-RES ovarian): 23.8 µM
- TGI (MALME-3M melanoma): 6.65 µM
- TGI (OVCAR-8 ovarian): 19.3 µM
- TGI (PC-3 prostate): 13.2 µM
- TGI (SK-MEL-5 melanoma): 4.8 µM
- TGI (NCI-H23 lung): 21.8 µM
- TGI (OVCAR-3 ovarian): 18.4 µM
- TGI (IGROV1 ovarian): 22.2 µM
- TGI (SF-539 CNS): 10.6 µM
- TGI (HCC-2998 colon): 11.7 µM
- TGI (SF-268 CNS): 25.4 µM
- TGI (HCT-116 colon): 14.7 µM
- TGI (CCRF-CEM leukemia): 7.62 µM
- TGI (RPMI-8226 leukemia): 4.9 µM
- TGI (ACHN renal): 20 µM
- TGI (SNB-19 CNS): 21.9 µM
- TGI (SK-OV-3 ovarian): 24.7 µM
- TGI (UACC-257 melanoma): 11.8 µM
- TGI (TK-10 renal): 25.5 µM
- TGI (SK-MEL-28 melanoma): 12.3 µM
- TGI (MDA-N): 13.1 µM
- TGI (SR leukemia): 4.57 µM
- TGI (UO-31 renal): 15.6 µM
- TGI (HT29 colon): 7.02 µM
- TGI (A549 NSCLC): 17.6 µM
- TGI (SF-295 CNS): 12 µM
- TGI (HCT-15 colon): 13.4 µM
- TGI (BT-549 breast): 20.4 µM
- TGI (COLO 205 colon): 6.13 µM
- TGI (DU-145 prostate): 19.6 µM
- TGI (OVCAR-5 ovarian): 17.5 µM
- TGI (LOX IMVI melanoma): 6.79 µM
- TGI (NCI-H522 lung): 8.49 µM
- TGI (CAKI-1 renal): 19.1 µM
- TGI (UACC-62 melanoma): 20.3 µM
- TGI (RXF 393 renal): 8.96 µM
- TGI (NCI-H226 lung): 21.2 µM
- TGI (K-562 leukemia): 5.93 µM
- TGI (MCF7 breast): 7.73 µM
- TGI (A498 renal): 12.9 µM
- TGI (HOP-92 NSCLC): 17.5 µM

SMILES: NCCCCNC1(c2cc3ccccc3s2)CCCCC1
- TGI (MDA-MB-231 breast): 11.4 µM
- TGI (U251 CNS): 5.49 µM
- TGI (T-47D breast): 5.23 µM
- TGI (SNB-75 CNS): 9.9 µM
- TGI (M14 melanoma): 3.8 µM
- TGI (HOP-62 NSCLC): 20 µM
- TGI (KM12 colon): 10.7 µM
- TGI (HS 578T breast): 20.4 µM
- TGI (SN12C renal): 25.1 µM
- TGI (SK-MEL-2 melanoma): 3.58 µM
- TGI (HL-60(TB) leukemia): 12.6 µM
- TGI (MOLT-4 leukemia): 8.37 µM
- TGI (OVCAR-4 ovarian): 20.5 µM
- TGI (SW-620 colon): 14.6 µM
- TGI (NCI-H460 lung): 7.42 µM
- TGI (EKVX NSCLC): 29.1 µM
- TGI (MDA-MB-435): 3.49 µM
- TGI (786-0 renal): 3.95 µM
- TGI (NCI/ADR-RES ovarian): 21.2 µM
- TGI (MALME-3M melanoma): 4.01 µM
- TGI (OVCAR-8 ovarian): 20.9 µM
- TGI (PC-3 prostate): 17.3 µM
- TGI (SK-MEL-5 melanoma): 3.63 µM
- TGI (NCI-H23 lung): 28.9 µM
- TGI (OVCAR-3 ovarian): 9.28 µM
- TGI (IGROV1 ovarian): 13.1 µM
- TGI (SF-539 CNS): 4.59 µM
- TGI (HCC-2998 colon): 3.1 µM
- TGI (SF-268 CNS): 13.5 µM
- TGI (HCT-116 colon): 14.9 µM
- TGI (CCRF-CEM leukemia): 5.44 µM
- TGI (RPMI-8226 leukemia): 6.1 µM
- TGI (ACHN renal): 23.2 µM
- TGI (SNB-19 CNS): 21.1 µM
- TGI (SK-OV-3 ovarian): 28 µM
- TGI (UACC-257 melanoma): 3.38 µM
- TGI (TK-10 renal): 10.4 µM
- TGI (SK-MEL-28 melanoma): 3.81 µM
- TGI (MDA-N): 3.39 µM
- TGI (SR leukemia): 3.58 µM
- TGI (UO-31 renal): 9.94 µM
- TGI (HT29 colon): 9.7 µM
- TGI (A549 NSCLC): 20.5 µM
- TGI (SF-295 CNS): 8.83 µM
- TGI (HCT-15 colon): 17.7 µM
- TGI (BT-549 breast): 25.4 µM
- TGI (COLO 205 colon): 3.5 µM
- TGI (DU-145 prostate): 23.5 µM
- TGI (OVCAR-5 ovarian): 19.2 µM
- TGI (LOX IMVI melanoma): 4.03 µM
- TGI (NCI-H522 lung): 6.19 µM
- TGI (CAKI-1 renal): 28.1 µM
- TGI (UACC-62 melanoma): 3.79 µM
- TGI (RXF 393 renal): 14.9 µM
- TGI (NCI-H226 lung): 34 µM
- TGI (K-562 leukemia): 3.56 µM
- TGI (MCF7 breast): 9.75 µM
- TGI (A498 renal): 6.04 µM
- TGI (HOP-92 NSCLC): 20.8 µM
